Measured values as given in patent publication US10578608B1, “Tools to detect, track and target cancer cells in vivo” (The Regents of the University of California, priority 2015, dated 2020).
k = constrained ethyl (cEt); d = 2'-deoxy (DNA)

Key:
MIA PaCa-2 tumors = assay: In vivo growth of MIA PaCa-2 flank tumors with intratumoral ASO; parameters: species or system mouse; conditions: intratumoral delivery, four weeks (5 days on and 2 days off), NSG mice
Description: Although ASOs have been used to inhibit gene expression in a variety of tissues (Carroll, J. B. et al. Potent and Selective Antisense Oligonucleotides Targeting Single-Nucleotide Polymorphisms in the Huntington Disease Gene/Allele-Specific Silencing of Mutant Huntingtin. Molecular Therapy 19, 2178-2185 (2009); Hung, G. et al. Characterization of Target mRNA Reduction Through In SituRNA Hybridization in Multiple Organ Systems Following Systemic Antisense Treatment in Animals. Nucleic Acid Therapeutics 23, 369-378 (2013); Rigo, F. et al. Pharmacology of a central nervous system delivered 2′-O-methoxyethyl-modified survival of motor neuron splicing oligonucleotide in mice and nonhuman primates. Journal of Pharmacology and Experimental Therapeutics 350, 46-55 (2014)), whether pancreatic cancer cells can take up ASOs was not known. […] Functionally MSI1 ASOs led to a marked reduction in colony numbers as well as in colony size, with a cumulative reduction of ˜2.5 fold in total growth (FIG. 4I). To test the impact of ASO mediated MSI1 inhibition in vivo, human pancreatic cancer cells were transplanted until growth was measurable. Subsequently, MSI1 inhibitors were delivered intratumorally for a period of four weeks (5 days on and 2 days off) and tumor growth monitored. […] KP^f/fC pancreatic tumor cells were isolated, transplanted and monitored until measurable growth (30 mm^3). […]

MSI1 RNA = assay: MSI1 expression after ASO free uptake (q-RT-PCR); format: cell-based, human; conditions: 24 hours, MIA PaCa-2 cells
Experimental: (FIG. 8 F to FIG. 8H) Real time PCR analysis of Msi expression following ASO free uptake in MIA PaCa-2 cells. MIA PaCa-2 cells were treated with 2 Gen 2.5 cEt ASOx target MSI1 or Control Gen 2.5 ASO for 24 hours, RNA was isolated and target knockdown (MSI1 RNA level) was determined by q-RT-PCR. IC50 values for each ASO were calculated using GraphPad Prism software; each treatment condition was performed in triplicate. (FIG. 8I) Colony formation assay in MSI1 ASO-treated MIA PaCa-2 cells after weekly delivery of control or MSI1 ASOs; colonies were counted after 4 weeks; n=3 for each ASO tested. (FIG. 8J) In vivo tracking of tumor volume in MSI1 ASO treated MIA PaCa-2 tumors with intratumoral delivery of control or MSI1 ASOs every day for 5 days followed by 2 days off; n=5 for each ASO tested. Nonlinear regression was used to determine the difference in slope between Control ASO and MSI1-ASO-1 (p<0.001). (FIG. 8K) In vivo tracking of tumor volume of primary KP^f/fC tumors with intratumoral delivery of control ASO or MSI1 ASOs following tumor establishment (n=4). […]
To identify human Msi ASO inhibitors, rapid throughput screens were performed to identify effective ASOs as previously described (Wang, J. C. Y. & Dick, J. E. Cancer stem cells: lessons from leukemia. Trends in Cell Biology 15, 494-501 (2005); Reya, T., Morrison, S. J., Clarke, M. F. & Weissman, I. L. Stem cells, cancer, and cancer stem cells. Nature 414(6859):105-11 (2001); Carroll, J. B. et al. Potent and Selective Antisense Oligonucleotides Targeting Single-Nucleotide Polymorphisms in the Huntington Disease Gene/Allele-Specific Silencing of Mutant Huntingtin. Molecular Therapy 19, 2178-2185 (2009); Samuel, V. T. et al. Targeting foxo1 in mice using antisense oligonucleotide improves hepatic and peripheral insulin action. […] Gene expression was assessed with taqman probes for MSI1 and MSI2. […] Colonies were counted 21 days after the first ASO treatment. […] Tumor measurements were recorded every 3 days. […]

Substance: 5′-ATATGATACAGGACGG-3′ (sugars from the 5' end k3 d10 k3, backbone and methylation of C not given here) [ASO-1]
- Tumor growth of human pancreatic cancer cell line derived tumors (MIA PaCa-2 tumors): significant reduction in the rate of tumor growth
- MSI1 expression in cell lines after ASO treatment (MSI1 RNA): inhibited MSI1 expression
